# PubChem BioAssay (NCI)
#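 Interpolation was linear, between the two tested concentrations surrounding the appropriate level; five concentrations were tested over 48 hours in 96-well plates. GI50: concentration for 50% inhibition of growth. Definition used: TGI = concentration required for complete inhibition of growth.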
# Experiments:
# Assay in all cases: growth of human tumour cells (NCI), 48 h
# HCT-15 colon = system: HCT-15 colon
# MCF7 breast = system: MCF7 breast
# NCI/ADR-RES ovarian = system: NCI/ADR-RES ovarian
# NCI-H460 lung = system: NCI-H460 lung
# HL-60(TB) leukemia = system: HL-60(TB) leukemia
# OVCAR-8 ovarian = system: OVCAR-8 ovarian
# MOLT-4 leukemia = system: MOLT-4 leukemia
# NCI-H522 lung = system: NCI-H522 lung
# SW-620 colon = system: SW-620 colon
# 786-0 renal = system: 786-0 renal
# U251 CNS = system: U251 CNS
# SK-OV-3 ovarian = system: SK-OV-3 ovarian
# KM12 colon = system: KM12 colon
# ACHN renal = system: ACHN renal
# SF-295 CNS = system: SF-295 CNS
# DU-145 prostate = system: DU-145 prostate
# SF-539 CNS = system: SF-539 CNS
# OVCAR-3 ovarian = system: OVCAR-3 ovarian
# SN12C renal = system: SN12C renal
# BT-549 breast = system: BT-549 breast
# MALME-3M melanoma = system: MALME-3M melanoma
# MDA-MB-231 breast = system: MDA-MB-231 breast
# SF-268 CNS = system: SF-268 CNS
# UO-31 renal = system: UO-31 renal
# K-562 leukemia = system: K-562 leukemia
# IGROV1 ovarian = system: IGROV1 ovarian
# A498 renal = system: A498 renal
# TK-10 renal = system: TK-10 renal
# SNB-75 CNS = system: SNB-75 CNS
# HT29 colon = system: HT29 colon
# NCI-H226 lung = system: NCI-H226 lung
# HOP-62 NSCLC = system: HOP-62 NSCLC
# EKVX NSCLC = system: EKVX NSCLC
# A549 NSCLC = system: A549 NSCLC
# UACC-257 melanoma = system: UACC-257 melanoma
# COLO 205 colon = system: COLO 205 colon
# HCT-116 colon = system: HCT-116 colon
# NCI-H23 lung = system: NCI-H23 lung
# SNB-19 CNS = system: SNB-19 CNS
# M14 melanoma = system: M14 melanoma
# PC-3 prostate = system: PC-3 prostate
# OVCAR-5 ovarian = system: OVCAR-5 ovarian
# OVCAR-4 ovarian = system: OVCAR-4 ovarian
# MDA-MB-435 = system: MDA-MB-435
# HCC-2998 colon = system: HCC-2998 colon
# LOX IMVI melanoma = system: LOX IMVI melanoma
# SK-MEL-2 melanoma = system: SK-MEL-2 melanoma
# CAKI-1 renal = system: CAKI-1 renal
# SK-MEL-5 melanoma = system: SK-MEL-5 melanoma
# HOP-92 NSCLC = system: HOP-92 NSCLC
# SK-MEL-28 melanoma = system: SK-MEL-28 melanoma
# CCRF-CEM leukemia = system: CCRF-CEM leukemia
# RPMI-8226 leukemia = system: RPMI-8226 leukemia
# UACC-62 melanoma = system: UACC-62 melanoma
# HS 578T breast = system: HS 578T breast
# SR leukemia = system: SR leukemia
structure (smiles),measurement,setting,value
c1ccc(-c2nnc(CCCCCCCCc3nnc(-c4ccccc4)o3)o2)cc1,TGI,HCT-15 colon,> 100 µM
same,TGI,MCF7 breast,> 100000 nM
same,TGI,NCI/ADR-RES ovarian,> 100000 nM
same,TGI,NCI-H460 lung,> 100 µM
same,TGI,HL-60(TB) leukemia,> 100000 nM
same,TGI,OVCAR-8 ovarian,> 100000 nM
same,TGI,MOLT-4 leukemia,> 100000 nM
same,TGI,NCI-H522 lung,61 µM
same,TGI,SW-620 colon,> 100 µM
same,TGI,786-0 renal,> 100000 nM
same,TGI,U251 CNS,> 100000 nM
same,TGI,SK-OV-3 ovarian,> 100 µM
same,TGI,KM12 colon,> 100000 nM
same,TGI,ACHN renal,> 100000 nM
same,TGI,SF-295 CNS,> 100000 nM
same,TGI,DU-145 prostate,> 100000 nM
same,TGI,SF-539 CNS,> 100000 nM
same,TGI,OVCAR-3 ovarian,> 100000 nM
same,TGI,SN12C renal,> 100000 nM
same,TGI,BT-549 breast,> 100 µM
same,TGI,MALME-3M melanoma,> 100 µM
same,TGI,MDA-MB-231 breast,> 100000 nM
same,TGI,SF-268 CNS,> 100 µM
same,TGI,UO-31 renal,> 100 µM
same,TGI,K-562 leukemia,> 100 µM
same,TGI,IGROV1 ovarian,> 100 µM
same,TGI,A498 renal,> 100 µM
same,TGI,TK-10 renal,> 100000 nM
same,TGI,SNB-75 CNS,> 100 µM
same,TGI,HT29 colon,> 100 µM
same,TGI,NCI-H226 lung,> 100 µM
same,TGI,HOP-62 NSCLC,> 100 µM
same,TGI,EKVX NSCLC,> 100 µM
same,TGI,A549 NSCLC,> 100000 nM
same,TGI,UACC-257 melanoma,> 100 µM
same,TGI,COLO 205 colon,> 100 µM
same,TGI,HCT-116 colon,> 100000 nM
same,TGI,NCI-H23 lung,> 100 µM
same,TGI,SNB-19 CNS,> 100 µM
same,TGI,M14 melanoma,> 100000 nM
same,TGI,PC-3 prostate,> 100 µM
same,TGI,OVCAR-5 ovarian,> 100 µM
same,TGI,OVCAR-4 ovarian,> 100 µM
same,TGI,MDA-MB-435,> 100 µM
same,TGI,HCC-2998 colon,91.6 µM
same,TGI,LOX IMVI melanoma,> 100000 nM
same,TGI,SK-MEL-2 melanoma,> 100000 nM
same,TGI,CAKI-1 renal,> 100 µM
same,TGI,SK-MEL-5 melanoma,> 100000 nM
same,TGI,HOP-92 NSCLC,> 100 µM
same,TGI,SK-MEL-28 melanoma,> 100000 nM
same,TGI,CCRF-CEM leukemia,> 100000 nM
Cc1cc2cn3c4ccc(O)cc4nc(N)c3c2cc1C,GI50,MCF7 breast,429 nM
same,TGI,MCF7 breast,1760 nM
same,GI50,NCI/ADR-RES ovarian,< 20.4 nM
same,TGI,NCI/ADR-RES ovarian,498 nM
same,GI50,HL-60(TB) leukemia,33.1 nM
same,TGI,HL-60(TB) leukemia,1210 nM
same,GI50,OVCAR-8 ovarian,180 nM
same,TGI,OVCAR-8 ovarian,1490 nM
same,GI50,MOLT-4 leukemia,82.8 nM
same,TGI,MOLT-4 leukemia,2480 nM
same,GI50,NCI-H522 lung,17.5 nM
same,TGI,NCI-H522 lung,0.293 µM
same,GI50,786-0 renal,54.1 nM
same,TGI,786-0 renal,1700 nM
same,GI50,U251 CNS,< 10 nM
same,TGI,U251 CNS,1390 nM
same,GI50,SK-OV-3 ovarian,233 nM
same,TGI,SK-OV-3 ovarian,5 µM
same,GI50,KM12 colon,< 10 nM
same,TGI,KM12 colon,2450 nM
same,GI50,RPMI-8226 leukemia,71.3 nM
same,TGI,RPMI-8226 leukemia,2010 nM
same,GI50,ACHN renal,< 30.7 nM
same,TGI,ACHN renal,1880 nM
same,GI50,SF-295 CNS,150 nM
same,TGI,SF-295 CNS,1280 nM
same,GI50,DU-145 prostate,53.5 nM
same,TGI,DU-145 prostate,1630 nM
same,GI50,SF-539 CNS,221 nM
same,TGI,SF-539 CNS,1050 nM
same,GI50,OVCAR-3 ovarian,< 17.6 nM
same,TGI,OVCAR-3 ovarian,1700 nM
same,GI50,SN12C renal,172 nM
same,TGI,SN12C renal,1890 nM
same,GI50,BT-549 breast,2220 nM
same,TGI,BT-549 breast,20.4 µM
same,GI50,MALME-3M melanoma,2180 nM
same,TGI,MALME-3M melanoma,26.7 µM
same,GI50,MDA-MB-231 breast,350 nM
same,TGI,MDA-MB-231 breast,1690 nM
same,GI50,SF-268 CNS,197 nM
same,TGI,SF-268 CNS,5.42 µM
same,GI50,UO-31 renal,227 nM
same,TGI,UO-31 renal,3.26 µM
same,GI50,A498 renal,289 nM
same,TGI,A498 renal,22.7 µM
same,GI50,UACC-62 melanoma,< 10 nM
same,TGI,UACC-62 melanoma,1310 nM
same,GI50,TK-10 renal,818 nM
same,TGI,TK-10 renal,2760 nM
same,GI50,SNB-75 CNS,211 nM
same,TGI,SNB-75 CNS,9.75 µM
same,GI50,HS 578T breast,170 nM
same,TGI,HS 578T breast,11 µM
same,GI50,NCI-H226 lung,502 nM
same,TGI,NCI-H226 lung,19.2 µM
same,GI50,EKVX NSCLC,794 nM
same,TGI,EKVX NSCLC,20.3 µM
same,GI50,A549 NSCLC,132 nM
same,TGI,A549 NSCLC,1460 nM
same,GI50,UACC-257 melanoma,1110 nM
same,TGI,UACC-257 melanoma,3.08 µM
same,GI50,HCT-116 colon,< 10 nM
same,TGI,HCT-116 colon,1320 nM
same,GI50,NCI-H23 lung,266 nM
same,TGI,NCI-H23 lung,5.09 µM
same,GI50,SNB-19 CNS,146 nM
same,TGI,SNB-19 CNS,18.6 µM
same,GI50,M14 melanoma,< 19.2 nM
same,TGI,M14 melanoma,1180 nM
same,GI50,PC-3 prostate,127 nM
same,TGI,PC-3 prostate,5.85 µM
same,GI50,OVCAR-5 ovarian,1110 nM
same,TGI,OVCAR-5 ovarian,11.5 µM
same,GI50,OVCAR-4 ovarian,1490 nM
same,TGI,OVCAR-4 ovarian,14.4 µM
same,GI50,HCC-2998 colon,539 nM
same,TGI,HCC-2998 colon,3.78 µM
same,GI50,LOX IMVI melanoma,< 10 nM
same,TGI,LOX IMVI melanoma,1580 nM
same,GI50,SR leukemia,< 28.4 nM
same,TGI,SR leukemia,1740 nM
same,GI50,SK-MEL-2 melanoma,< 10 nM
same,TGI,SK-MEL-2 melanoma,1340 nM
same,GI50,CAKI-1 renal,176 nM
same,TGI,CAKI-1 renal,5.13 µM
same,GI50,SK-MEL-5 melanoma,< 10 nM
same,TGI,SK-MEL-5 melanoma,137 nM
same,GI50,HOP-92 NSCLC,4.89 µM
same,TGI,HOP-92 NSCLC,22.3 µM
same,GI50,SK-MEL-28 melanoma,96.1 nM
same,TGI,SK-MEL-28 melanoma,2100 nM
same,GI50,CCRF-CEM leukemia,16.3 nM
same,TGI,CCRF-CEM leukemia,2130 nM
